These results are taken from publication PMC5363571 (Oncotarget, 2016).

In the assay the target is USP7 (Homo sapiens, UniProt Q93009). The assay is described as follows: biochemical. The arrangement: Ub-AMC hydrolysis by recombinant USP7 (20 nM), 30 min pre-incubation, fluorescence read-out. The conditions noted are these: for inhibition at 50 µM: read-out: % Inhibition at 50 μM.

Counter-ions that a name gives are not always drawn.

For orientation: inhibition means how much of the control response was suppressed. One may read the % Inhibition as the percentage by which the read-out fell short of the control.

Sequence of USP7 (Q93009 whole entry): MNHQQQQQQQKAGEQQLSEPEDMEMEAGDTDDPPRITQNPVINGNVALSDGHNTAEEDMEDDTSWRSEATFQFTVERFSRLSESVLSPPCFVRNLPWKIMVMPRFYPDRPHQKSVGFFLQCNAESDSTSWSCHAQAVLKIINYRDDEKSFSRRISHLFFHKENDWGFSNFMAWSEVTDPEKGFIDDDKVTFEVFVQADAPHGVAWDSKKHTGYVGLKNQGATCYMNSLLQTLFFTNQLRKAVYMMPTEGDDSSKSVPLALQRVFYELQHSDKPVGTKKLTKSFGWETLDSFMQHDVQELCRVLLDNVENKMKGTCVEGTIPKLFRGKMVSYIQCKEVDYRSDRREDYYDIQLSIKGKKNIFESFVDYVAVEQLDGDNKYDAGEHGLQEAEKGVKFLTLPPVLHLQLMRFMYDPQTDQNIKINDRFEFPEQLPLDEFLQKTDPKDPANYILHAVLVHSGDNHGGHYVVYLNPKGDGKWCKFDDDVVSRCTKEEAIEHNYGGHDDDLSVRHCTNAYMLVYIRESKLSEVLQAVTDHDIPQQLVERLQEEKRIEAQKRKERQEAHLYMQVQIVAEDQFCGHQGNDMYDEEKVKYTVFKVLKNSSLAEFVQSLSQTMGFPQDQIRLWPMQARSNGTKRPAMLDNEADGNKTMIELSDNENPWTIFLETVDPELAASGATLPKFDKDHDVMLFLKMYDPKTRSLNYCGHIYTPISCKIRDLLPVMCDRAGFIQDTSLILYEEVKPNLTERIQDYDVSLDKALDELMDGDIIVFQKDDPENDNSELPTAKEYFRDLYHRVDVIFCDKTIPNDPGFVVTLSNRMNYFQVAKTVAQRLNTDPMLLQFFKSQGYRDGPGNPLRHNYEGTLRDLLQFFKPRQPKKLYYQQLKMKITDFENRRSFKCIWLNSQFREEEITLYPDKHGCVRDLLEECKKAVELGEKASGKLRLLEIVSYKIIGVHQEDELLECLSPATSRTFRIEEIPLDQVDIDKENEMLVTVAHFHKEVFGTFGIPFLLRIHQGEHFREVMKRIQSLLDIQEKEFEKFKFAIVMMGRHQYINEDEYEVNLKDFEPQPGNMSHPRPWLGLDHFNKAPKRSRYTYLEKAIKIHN

For `CC1CCc2c(N3CCC(O)CC3)c(F)cc3c(=O)c(C(=O)O)cn1c23` (centres unmarked) [Nadifloxacin], the inhibition at 50 µM is under 5%.

Regarding `O=C1CC[C@@]2(O)[C@H]3Cc4ccc(O)c5c4[C@@]2(CCN3CC2CC2)[C@H]1O5` [Naltrexone HCl], the inhibition at 50 µM was under 5%.

As for `Oc1ccc2c3c1O[C@H]1c4[nH]c5ccccc5c4C[C@@]4(O)[C@@H](C2)N(CC2CC2)CC[C@]314` [Naltrindole HCl], the inhibition at 50 µM was under 5%.

As for `c1ccc2c(CC3=NCCN3)cccc2c1` [Naphazoline HCl], the inhibition at 50 µM is under 5%.

Consider `CCc1nn(CCCN2CCN(c3cccc(Cl)c3)CC2)c(=O)n1CCOc1ccccc1` [Nefazodone], for which the inhibition at 50 µM was under 5%.

On to `CN(C)C(=O)Oc1cccc([N+](C)(C)C)c1` [Neostigmine Br], for which the inhibition at 50 µM was under 5%.

Consider `O=C(CCNNC(=O)c1ccncc1)NCc1ccccc1` [Nialamide], for which the inhibition at 50 µM is under 5%.

Regarding `COC(=O)C1=C(C)NC(C)=C(C(=O)OCCN(C)Cc2ccccc2)C1c1cccc([N+](=O)[O-])c1` (centres unmarked) [Nicardipine], the inhibition at 50 µM was under 5%.

As for `O=C(O)c1cccnc1Nc1cccc(C(F)(F)F)c1` [Niflumic acid], the inhibition at 50 µM is under 5%.

`COC(=O)C1=C(C)NC(C)=C(C(=O)OCCCN2CCC(c3ccccc3)(c3ccccc3)CC2)[C@H]1c1cccc([N+](=O)[O-])c1` [Niguldipine HCl]: the inhibition at 50 µM is under 5%.

For the compound `CS(=O)(=O)Nc1ccc([N+](=O)[O-])cc1Oc1ccccc1` [Nimesulide], the inhibition at 50 µM was under 5%.

Consider `CNCCC(Oc1ccccc1OC)c1ccccc1` (centres unmarked) [Nisoxetine HCl], for which the inhibition at 50 µM was under 5%.

Consider `NC[C@H](O)c1ccc(O)c(O)c1` [Norepinephrine-(+)-tartrate l (-)], for which the inhibition at 50 µM was under 5%.

For `CO[C@@H]1[C@@H](OC(N)=O)[C@@H](O)[C@H](Oc2ccc3c(O)c(NC(=O)c4ccc(O)c(CC=C(C)C)c4)c(=O)oc3c2C)OC1(C)C` [Novobiocin Na], the inhibition at 50 µM is under 5%.

Consider `CC1(C)CC[C@]2(C(=O)O)CC[C@]3(C)C(=CC[C@@H]4[C@@]5(C)CC[C@H](O)C(C)(C)[C@@H]5CC[C@]43C)[C@@H]2C1` [Oleanolic acid], for which the inhibition at 50 µM is 69.2%.

Take `CCCc1nc(C(C)(C)O)c(C(=O)O)n1Cc1ccc(-c2ccccc2-c2nnn[nH]2)cc1` [Olmesartan]: the inhibition at 50 µM is under 5%.

`CN(C)CC/C=C1/c2ccccc2COc2ccc(CC(=O)O)cc21` [Olopatadine]: the inhibition at 50 µM was under 5%.

For `C[C@@H]1O[C@@H](O[C@H]2C[C@@H](O)[C@]3(CO)[C@H]4[C@H](O)C[C@]5(C)[C@@H](C6=CC(=O)OC6)CC[C@]5(O)[C@@H]4CC[C@]3(O)C2)[C@H](O)[C@H](O)[C@H]1O` [Ouabain], the inhibition at 50 µM was under 5%.

Regarding `O=C(O)/C=C/c1ccc(Cn2ccnc2)cc1` [Ozagrel], the inhibition at 50 µM is under 5%.

Turning to `CC(=O)O[C@H]1C[C@@H]2CC[C@@H]3[C@H](CC[C@@]4(C)[C@H]3C[C@H]([N+]3(C)CCCCC3)[C@@H]4OC(C)=O)[C@@]2(C)C[C@@H]1[N+]1(C)CCCCC1` [Pancuronium Br], the inhibition at 50 µM was under 5%.

Take `CC(C)(CO)[C@@H](O)C(=O)NCCC(=O)O` [Pantothenic acid]: the inhibition at 50 µM is under 5%.

As to `CCCN1C[C@H](CSC)C[C@@H]2c3cccc4[nH]cc(c34)C[C@H]21` [Pergolide mesylate], the inhibition at 50 µM was under 5%.

As for `CC(COc1ccccc1)N(CCCl)Cc1ccccc1` (centres unmarked) [Phenoxybenzamine HCl], the inhibition at 50 µM was under 5%.

As to `Cc1ccc(N(CC2=NCCN2)c2cccc(O)c2)cc1` [Phentolamine HCl], the inhibition at 50 µM is under 5%.

Consider `C[C@H](N)[C@H](O)c1ccccc1` [Phenylpropanolamine], for which the inhibition at 50 µM is under 5%.

As to `O=C1NC(=O)C(c2ccccc2)(c2ccccc2)N1` [Phenytoin], the inhibition at 50 µM is under 5%.

Take `CNC(=O)Oc1ccc2c(c1)[C@]1(C)CCN(C)[C@@H]1N2C` [Physostigmine sulfate]: under “inhibitor”, the “% Inhibition at 50 μM” value is under 5%.

For `COc1ccc(C(=O)NCc2cccnc2)cc1C(=O)NCc1cccnc1` [Picotamide], the inhibition at 50 µM was under 5%.

For `CC[C@@H]1C(=O)OC[C@@H]1Cc1cncn1C` [Pilocarpine HCl], the inhibition at 50 µM is under 5%.

For the compound `O=c1[nH]c2ccccc2n1C1CCN(CCCC(c2ccc(F)cc2)c2ccc(F)cc2)CC1` [Pimozide], the inhibition at 50 µM is under 5%.

On to `CC(N/C(=N\C#N)Nc1ccncc1)C(C)(C)C` (centres unmarked) [Pinacidil], for which the inhibition at 50 µM was under 5%.

On to `CC(C)NCC(O)COc1cccc2[nH]ccc12` (centres unmarked) [Pindolol], for which the inhibition at 50 µM was under 5%.

Consider `CN1CCN(CC(=O)N2c3ccccc3C(=O)Nc3cccnc32)CC1` [Pirenzepine 2HCl], for which the inhibition at 50 µM was under 5%.

Regarding `c1cnc(N2CCN(Cc3ccc4c(c3)OCO4)CC2)nc1` [Piribedil HCl], the inhibition at 50 µM is under 5%.

On to `CN1C(C(=O)Nc2ccccn2)=C(O)c2ccccc2S1(=O)=O` [Piroxicam], for which the inhibition at 50 µM was under 5%.

As to `CO[C@H](C(=O)[C@@H](O)[C@@H](C)O)[C@@H]1Cc2cc3cc(O[C@H]4C[C@@H](O[C@@H]5C[C@@H](O)[C@H](O)[C@@H](C)O5)[C@H](O)[C@@H](C)O4)c(C)c(O)c3c(O)c2C(=O)[C@H]1O[C@H]1C[C@@H](O[C@@H]2C[C@@H](O)[C@@H](O[C@@H]3C[C@](C)(O)[C@H](O)[C@@H](C)O3)[C@@H](C)O2)[C@H](O)[C@@H](C)O1` [Plicamycin], the inhibition at 50 µM is under 5%.

As for `CC1(C)CCC2(C(=O)O)C(O)CC3(C)C(=CCC4C5(C)CC(O)C(O)C(C)(CO)C5CCC43C)C2C1` (centres unmarked) [Polygalacic acid], the inhibition at 50 µM was under 5%.

As for `COc1ccc(C(=O)c2c(C)n(CCN3CCOCC3)c3ccccc23)cc1` [Pravadoline], the inhibition at 50 µM is under 5%.

As to `O=C(C1CCCCC1)N1CC(=O)N2CCc3ccccc3C2C1` (centres unmarked) [Praziquantel], the inhibition at 50 µM is under 5%.

In the case of `CC(=O)[C@H]1CC[C@H]2[C@@H]3CC=C4C[C@@H](O)CC[C@]4(C)[C@H]3CC[C@]12C` [Pregnenolone], the inhibition at 50 µM was under 5%.

As to `COc1cc(NC(C)CCCN)c2ncccc2c1` (centres unmarked) [Primaquine phosphate], the inhibition at 50 µM was under 5%.

Regarding `COC(=O)[C@]1(C)CC[C@]2(C)CC[C@]3(C)C4=CC=C5C(=CC(=O)C(O)=C5C)[C@]4(C)CC[C@@]3(C)[C@@H]2C1` [Pristimerin], the inhibition at 50 µM stood at 39.1%.

As to `CCN(CC)CCNC(=O)c1ccc(N)cc1` [Procainamide], the inhibition at 50 µM was under 5%.

For the compound `CCC(NC(C)C)C(O)c1ccc(O)c2[nH]c(=O)ccc12` (centres unmarked) [Procaterol hcl], the inhibition at 50 µM is under 5%.

As to `CC(CN1c2ccccc2Sc2ccccc21)N(C)C` (centres unmarked) [Promethazine HCl], the inhibition at 50 µM stood at 8.9%.

`CC(C)NCC(O)c1ccc2ccccc2c1` (centres unmarked) [Pronethalol HCl]: the inhibition at 50 µM came to 8.3%.

As for `CCCNCC(O)COc1ccccc1C(=O)CCc1ccccc1` (centres unmarked) [Propafenone], the inhibition at 50 µM is 78.2%.

Regarding `CC(C)c1cccc(C(C)C)c1O` [Propofol], the inhibition at 50 µM is under 5%.

Turning to `COc1ccc(C[C@H](N)C(=O)N[C@H]2[C@@H](O)[C@H](n3cnc4c(N(C)C)ncnc43)O[C@@H]2CO)cc1` [Puromycin 2HCl], the inhibition at 50 µM is under 5%.

Consider `OCCOCCN1CCN(C2=Nc3ccccc3Sc3ccccc32)CC1` [Quetiapine fumarate], for which the inhibition at 50 µM is under 5%.
